# According to patent US11612629B2, “Pharmaceutical composition for preventing or treating muscle diseases, containing ginseng berry extract as active ingredient” (Holistic Bio Co., Ltd., priority 2018, dated 2023):
# How the values were obtained:
# [1] = test system: muscle atrophy induced mice; test: Muscle weight (gastrocnemius, quadriceps) per body weight in immobilization-induced muscle atrophy mice; format: in vivo, C57BL/6 mice
# Experimental: (§1) First, 5-week-old male C57BL/6 mice were adapted to the animal laboratory environment for 7 days and then divided into 5 groups according to the experimental conditions. Particularly, the experimental groups were divided into the non-treated control group (normal group, Cont), the group induced with muscle atrophy (induction group, IM), the positive control group induced with muscle atrophy and treated with 370 mg/kg of HMB (beta-hydroxy beta-methlybutyrate) (HMB treated group, HMB 370), the group induced with muscle atrophy and treated with low dose (100 mg/kg) of the Panax ginseng berry extract of Example 1 (Panax ginseng berry extract treated group, GBE 100), and the group induced with muscle atrophy and treated with high dose (200 mg/kg) of the Panax ginseng berry extract of Example 1 (Panax ginseng berry extract treated group, GBE 200). Muscle atrophy was induced by immobilization in which a fixation device made of 1.5 mL microfuge tube, clip and velcro tape was applied to one hind leg of a mouse according to ‘Disease models & mechanisms, 8(9), 1059-1069, 2015’. HMB and the Panax ginseng berry extract were dissolved in 0.5% carboxymethyl cellulose (CMC) and administered to the mouse orally once a day for 14 days from the day of the leg immobilization. After 14 days, the gastrocnemius and quadriceps of the hind leg were extracted, weighed, and standardized based on the body weight.
# [2] = test system: muscle atrophy induced mice; test: Muscle fiber size and cross-sectional area of gastrocnemius (H&E, image J) in muscle atrophy induced mice; format: in vivo, C57BL/6 mice; details: 14 days
# Experimental: as §1
# Whether the Panax ginseng berry extract alleviates the muscle fiber cross-sectional area reduction caused by muscle atrophy was confirmed by the following method. Particularly, the gastrocnemius tissue extracted in Experimental Example 1-1 was fixed with 4% paraformaldehyde, stained with hematoxylin and eosin (H&E), and the muscle fiber cross-sectional area was quantified using image J software.
structure (smiles),measurement,setting,value
"CC(C)(O)CC(=O)O [HMB, beta-hydroxy beta-methlybutyrate]",weight of the quadriceps reduced compared to the normal group,"[1]; 370 mg/kg orally once a day for 14 days, induction group (IM) about 33%",about 17%
same,weight of the gastrocnemius reduced compared to the normal group,"[1]; 370 mg/kg orally once a day for 14 days, induction group (IM) about 40%",about 24%
same,protective ability of muscle atrophy (muscle weight),"[1]; 370 mg/kg orally, 14 days, gastrocnemius and quadriceps",about 16%
same,"muscle atrophy protection, muscle fiber cross-sectional area",[2]; 370 mg/kg orally,about 13%
same,muscle fiber cross-sectional area decreased compared to the normal group,"[2]; 370 mg/kg orally, induction group about 60%",about 47%
same,reduction in muscle fiber size (FIG. 3),"[2]; gastrocnemius, HMB 370 mg/kg, extract 100 and 200 mg/kg orally",alleviated
